Assay [1] concerns tilapia NIL cells. The assay can be described thus: SL release in primary NIL cell culture (ELISA). Type of assay: cell-based, Nile tilapia (Oreochromis niloticus). The note with it: for SL release, dose dependence: mean ± SEM (N = 3). The procedure:
(§1) To examine the direct effects of GCG on SL release and gene expression in the pituitary, tilapia NIL cells were prepared by the controlled trypsin/DNase II digestion method as described previously ([30]). After that, NIL cells were seeded in poly-D-lysine precoated 24-well plates at ~1.5 × 10^6 cells/mL/well and incubated with test substances for the duration as indicated. After drug treatment, SL release in conditioned medium was immediately determined by the enzyme-linked immunosorbent assay (ELISA) with a detectable range from 0.5 to 500 ng/mL for SL. The assay was optimized in our laboratory by utilizing a polyclonal antibody against tilapia SL ([31]) and a SL-biotin conjugate (GenScript, Nanjing, China). Meanwhile, the cells were rinsed with cold PBS before being lysed by TRIzol reagent (Life Technologies) to measure SL gene expression. After cDNA synthesis, qPCR assays were performed using the primers specific for tilapia SL (forward primer: 5’ […] 3’ and reverse primer: 5’ […] 3’). The same qPCR conditions were maintained as described above, and gene expression levels were analyzed using the 2^−ΔΔCT method. In these experiments, β-actin was used as an internal control for normalizing genes of interest. It has been reported that β-actin is used to normalize SL gene expression in tilapia ([14]), goldfish ([32]), and red drum ([33]).
(§2) For qPCR and ELISA assays, NIL cells were prepared from 30–40 individual fish in each experimental run. For cAMP and IP3 measurements, NIL cells were prepared from ~30 individual fish in each experimental run. For Ca^2+ signal measurements, NIL cells were prepared from 10–12 individual fish. For the Western blot analysis, NIL cells were prepared from ~30 individual fish in each experimental run. Three biological replicates were analyzed, and four technical repeats were performed per sample. All results are expressed as the mean ± SEM (N = 3) and analyzed with ANOVA followed by post-hoc Bonferroni’s test for multiple comparisons. A value of P < 0.05 was regarded as statistically significant. All analyses were performed with GraphPad Prism Software, Inc (San Diego, CA).
For orientation: An ELISA detects its analyte on a solid surface through an enzyme-linked reagent.

Assay [2] deals with tilapia NIL cells. The assay can be described thus: SL gene expression in primary NIL cell culture (qPCR). Type of assay: cell-based, Nile tilapia (Oreochromis niloticus). The note with it: for effect on basal SL gene expression: 10 µM test substance. The procedure:
as §1, §2
A general note: In qPCR the cycle at which signal appears reflects the starting amount.

For assay [3], the system named is rat hepatocytes. The note with it: ref [57]; cited from earlier work.
For assay [4], the system named is rat hepatocytes. The settings on record: ref Mine et al. ([59]); cited from earlier work. From the text:
Although pituitary GCG-mediated molecular signaling pathways remain largely unknown, GCG action in fish hepatocytes is mediated by the AC/cAMP/PKA pathway ([52], [55]). These findings promote us to investigate similar signaling mechanisms involved in GCGb action in tilapia pituitary cells. […] In contrast, both basal and GCGb-induced SL release and gene expression ...

For the next assay, the system named is fish glucagon. The note with it: ref [18]; cited from earlier work. The procedure: Male Nile tilapia (O. niloticus) with a bodyweight range of 45-55 g were purchased from local aquaria and maintained in aerated 300-liter aquaria at 28°C under 12 h dark/12 h light photoperiod. During tissue sampling, the fish were sacrificed by spinosectomy after anesthesia with 0.05% MS222 (Sigma, St Louis, MO) according to the procedures approved by the Animal Ethics Committee of Sichuan University. The tilapia and human GCGs and the des-His1-[Nle9-Ala11-Ala16] GCG antagonist were synthesized by GL Biochem (Shanghai, China).

For a further assay, the system named is GCGRb. The note with it: ref [42]; cited from earlier work. An excerpt:
Identification of multiple types of Gcgrs raises a question of whether a given physiological response is mediated by either a specific receptor or multiple types of receptors. We examined the functional similarity and difference of the two tilapia GCGRs.

In a further assay the test system is tilapia GCGRa. Nature of the assay: CRE-luciferase reporter assay, HEK293 cells stably expressing tilapia GCGRa. Type of assay: cell-based, Nile tilapia (Oreochromis niloticus). As for the experimental part:
(§3) The open reading frames (ORFs) of tilapia Gcgra and Gcgrb were subcloned in the pcDNA3.1 (+) expression vector (Invitrogen) using high-fidelity Taq DNA polymerase (TOYOBO, Japan) and then HEK293 cell lines with stable expression of pcDNA3.1-GCGRa, and pcDNA3.1-GCGRb, respectively, were established in the presence of 500 µg/mL […] (Invitrogen). The expression of Gcgra and Gcgrb transcripts in these stably transfected cell lines was confirmed by qPCR, and the colonies with the same levels of Gcgra and Gcgrb mRNA expression were selected for subsequent studies. After that, HEK293 cells were co-transfected with the cAMP response element (CRE)-luciferase reporter plasmid, and Renilla luciferase plasmid (pTK-RL) (Promega, Madison, WI), encoding the Renilla luciferase protein, as the internal control using Lipofectamine in Opti-MEM (Invitrogen). […] The luciferase activity of cellular lysates was determined using a Dual-Glo luciferase assay kit (Promega), and the signal was read using a microplate reader (Fluostar OPTIMA, BMGLabtech). The luciferase activities in each treatment group were expressed as relative fold increase compared with the control group.
(§4) Figure 3 Functional characterization of tilapia GCGRa and GCGRb expressed in HEK293 cells. […] All results are expressed as the mean ± SEM (N = 3).
In general terms: A reporter such as luciferase makes a cellular process visible.

In another assay the test system is tilapia GCGRb. The assay can be described thus: CRE-luciferase reporter assay, HEK293 cells stably expressing tilapia GCGRb. Type of assay: cell-based, Nile tilapia (Oreochromis niloticus). The note with it: HEK293, CRE-luciferase (cAMP), 24 h treatment, 37°C, Luc ratio to Renilla, N = 3. The procedure: as §3, §4
Setting [5] is: 1 µM test substance with GCGb 10 nM, 24 h.
Setting [6] is: 50 nM test substance with GCGb 10 nM (duration not given).
The mark [7] stands for this setting: 10 µM test substance with GCGb 10 nM, 24 h.
[8] abbreviates: 5 µM test substance with GCGb 10 nM (duration not given).
The mark [9] stands for this setting: 5 µM test substance with GCGb 10 nM, 24 h.

For `Cc1cc(C)c(S(=O)(=O)Nc2cccc(C(F)(F)F)c2)c(C)c1` [m-3M3FBS], the “SL release, dose dependence” value in the assay on tilapia NIL cells [1] (0.01–10 µM) is listed as “dose-dependently stimulated SL release”.

On to `Clc1ccc(C(c2ccc(Cl)cc2)n2cc[n+](CC(OCc3ccc(Cl)cc3Cl)c3ccc(Cl)cc3Cl)c2)cc1` (stereo not shown) [calmidazolium], for which the “effect on GCGb-stimulated SL release” value in the assay with tilapia NIL cells [1] (setting [5]) is “abolished”. In addition, the “effect on GCGb-stimulated SL mRNA expression” value with tilapia NIL cells [2] (setting [5]) is recorded as “abolished”.

“GCG: Glucagon, a 29 amino acid peptide hormone derived from proglucagon (cited work, species not stated)”: the “production of IP3” value in the assay on rat hepatocytes [3] is listed as “induce the production of IP3”. In the assay on rat hepatocytes [4], the “Ca^2+ release” value was “can mediate Ca^2+ release from both intracellular Ca^2+ store and extracellular Ca^2+ influx”.

Turning to `COc1c(C[C@@H](C)OC(=O)Oc2ccc(O)cc2)c2c3c(C[C@@H](C)OC(=O)c4ccccc4)c(OC)c(=O)c4c(O)cc(OC)c(c5c(OC)cc(O)c(c1=O)c52)c43` [calphostin C], the “effect on GCGb-stimulated SL release” value in the assay with tilapia NIL cells [1] (20 nM test substance with GCGb 10 nM, 24 h) was “neither compound was able to block GCGb stimulated SL release”.

With `C/C=C(/C)C(=O)O[C@H]1C(C)=C2[C@H]([C@@H]1OC(=O)CCCCCCC)[C@@](C)(OC(C)=O)C[C@H](OC(=O)CCC)[C@@]1(O)[C@H]2OC(=O)[C@@]1(C)O` [thapsigargin], the “effect on GCGb-stimulated SL release” value in the assay on tilapia NIL cells [1] (setting [6]) was “effective in blocking the stimulatory effect of GCGb on SL release and mRNA expression”. The “effect on GCGb-stimulated SL mRNA expression” value with tilapia NIL cells [2] (setting [6]) was “effective in blocking the stimulatory effect of GCGb on SL release and mRNA expression”.

Regarding `COc1ccc2c(c1)CC[C@@H]1[C@@H]2CC[C@]2(C)[C@@H](NCCCCCCN3C(=O)C=CC3=O)CC[C@@H]12` [U73122], the “effect on GCGb-stimulated SL release” value in the assay on tilapia NIL cells [1] (setting [7]) is “blocked the GCGb-stimulated SL release and mRNA expression”. In addition, in the assay with tilapia NIL cells [2] (setting [7]), the “effect on GCGb-stimulated SL mRNA expression” value is “blocked the GCGb-stimulated SL release and mRNA expression”.

With `Cl.c1ccc(C2CCCC2NC2=NCCCCCCCCCCC2)cc1` (stereo not shown) [MDL12330A], the “effect on GCGb-stimulated SL release” value in the assay with tilapia NIL cells [1] (setting [7]) is listed as “blocked”. Further, the “effect on basal SL release” value in the assay on tilapia NIL cells [1] (10 µM test substance, 24 h) is “blocked the basal levels”. Further, the “effect on GCGb-stimulated SL mRNA expression” value with tilapia NIL cells [2] (setting [7]) was “blocked”. The “effect on basal SL gene expression” value in the assay with tilapia NIL cells [2] (24 h) was “blocked the basal levels”.

As to `CN(C)CCCn1cc(C2=C(c3c[nH]c4ccccc34)C(=O)NC2=O)c2ccccc21` [GF109203X], in the assay on tilapia NIL cells [1] (20 µM test substance with GCGb 10 nM, 24 h), the “effect on GCGb-stimulated SL release” value is “neither compound was able to block GCGb stimulated SL release”.

Take “des-His1-[Nle9-Ala11-Ala16] GCG antagonist”: the “effect on GCGb-stimulated SL release” value in the assay on tilapia NIL cells [1] (setting [5]) is recorded as “stimulatory effect could be blocked”. The “block of the action of fish glucagon” value in the assay with fish glucagon is listed as “could block the action of fish glucagon”.

As for `C=C[C@@]1(C)CC(=O)[C@]2(O)[C@@]3(C)[C@@H](O)CCC(C)(C)[C@@H]3[C@H](O)[C@H](OC(C)=O)[C@@]2(C)O1` [forskolin], in the assay on tilapia NIL cells [1] (0.1–100 nM, 24 h), the “SL release, dose dependence” value is recorded as “dose-dependently stimulated SL release”.

In the case of `COC(=O)C1=C(C)NC(C)=C(C(=O)OC)C1c1ccccc1[N+](=O)[O-]` [nifedipine], the “effect on GCGb-stimulated SL release” value in the assay with tilapia NIL cells [1] (setting [8]) was “effective in blocking the stimulatory effect of GCGb on SL release and mRNA expression”. Also, in the assay on tilapia NIL cells [2] (setting [8]), the “effect on GCGb-stimulated SL mRNA expression” value was “effective in blocking the stimulatory effect of GCGb on SL release and mRNA expression”.

Regarding `O=S(=O)(NCCNC/C=C/c1ccc(Br)cc1)c1cccc2cnccc12` [H89], the “effect on GCGb-stimulated SL release” value with tilapia NIL cells [1] (setting [7]) is “blocked”. Further, the “effect on basal SL release” value in the assay with tilapia NIL cells [1] (10 µM test substance, 24 h) is reported as “blocked the basal levels”. The “effect on GCGb-stimulated SL mRNA expression” value in the assay with tilapia NIL cells [2] (setting [7]) is “blocked”. For the same compound, the “effect on basal SL gene expression” value with tilapia NIL cells [2] (24 h) is given as “blocked the basal levels”.

Regarding mouse GCG: mouse glucagon (cited work), in the assay with GCGRb, the “activation of zebrafish GCGRb” value is listed as “potently activated”.

For the compound `C1CCC[C@H]2CCCN3CC[C@@H](CCCCCC[C@@H]4CCCN5CC[C@@H](CC1)O[C@@H]45)O[C@@H]23` [xestospongin C], the “effect on GCGb-stimulated SL release” value in the assay with tilapia NIL cells [1] (setting [9]) is listed as “suppressed”. The “effect on basal SL release” value in the assay on tilapia NIL cells [1] (5 µM test substance, 24 h) is reported as “suppressed”. In addition, in the assay on tilapia NIL cells [2] (setting [9]), the “effect on GCGb-stimulated SL mRNA expression” value is listed as “suppressed”. Moreover, the “effect on basal SL mRNA levels” value in the assay with tilapia NIL cells [2] (5 µM test substance, 24 h) was “suppressed”.

In the case of “human GCG: human glucagon, synthesized by GL Biochem”, in the assay with tilapia GCGRa (fold less potent than tilapia GCGa), the “potency at tilapia GCGRa relative to tilapia GCGa (fold less potent)” value is 80 fold. The concentration for a half-maximal effect (EC50) (in general, the concentration needed to bring the measured effect to its halfway point) was 240 nM in the assay with tilapia GCGRa (tilapia GCGRa, HEK293, CRE-luciferase (cAMP), 24 h treatment, 37°C, Luc ratio to Renilla, N = 3) and 6.37 nM in the assay on tilapia GCGRb.

On to `CN([C@@H](Cc1ccc(OS(=O)(=O)c2cccc3cnccc23)cc1)C(=O)N1CCN(c2ccccc2)CC1)S(=O)(=O)c1cccc2cnccc12` [KN62], for which the “effect on GCGb-stimulated SL release” value in the assay with tilapia NIL cells [1] (setting [9]) is reported as “abolished”. The “effect on GCGb-stimulated SL mRNA expression” value in the assay on tilapia NIL cells [2] (setting [9]) is “abolished”.

The values are drawn from paper PMC7890253, “Signal Transduction Mechanisms for Glucagon-Induced Somatolactin Secretion and Gene Expression in Nile Tilapia (Oreochromis niloticus) Pituitary Cells” (Frontiers in Endocrinology, 2021).
